Assays:
[1] = test system: RBCs; experiment: Control of hemolysis (RBC count with CASY Cell Counter and Analyzer); assay type: cell-based; conditions: for decrease of RBC concentration compared to vehicle (DMSO) alone: 0.1 mM, 30 min at room temperature; for RBCs/ml (x10^6): RBCs at 6x10^6 cells/ml incubated with molecule at 0.1 mM for 30 min at room temperature
Procedure: At the end of the 30 min of incubation with the molecules, the number of RBC for the control of hemolysis was measure by using CASY® Cell Counter and Analyzer.
For hemolysis assays, RBCs were suspended at 6x10^6 cells/ml in the Hanks/0.4% BSA buffer and the concentration measured accurately using the CASY® Cell Counter and Analyzer. RBCs were then incubated or not with solutions comprising either Molecule 1, Molecule 2 or Molecule 3 at 0.1 mM or DMSO, for 30 min at room temperature. After this incubation time cell concentration was measured again using CASY® Cell Counter and Analyzer (Table 1). If hemolysis occurs during this incubation time it will be reflected by a decrease in the RBC concentration.

[2] = test system: laminin 521; experiment: Red blood cell adhesion to laminin 521 under flow conditions; assay type: cell-based, human; conditions: for RBC adhesion to laminin: RBCs from sickle cell disease patients incubated with molecule at 0.1 mM for 30 min at room temperature, 3 blood samples, Figure 1; for inhibition of RBC adhesion to laminin (dose effect): increasing concentrations 50, 100 and 200 µM, same conditions as in Example 1, Figure 2
Procedure: Red blood cell adhesion to laminin 521 was measured under flow conditions using Vena8 Endothelial+™ biochips (internal channel dimensions: length 20 mm, width 0.8 mm, height 0.12 mm) and ExiGo™ Nanopumps (Cellix Ltd, Dublin, Ireland). Three different solutions were prepared with either Molecule 1, Molecule 2 or Molecule 3 (0.1 mM) by solubilizing Molecule 1, 2 or 3 using DMSO. Recombinant human laminin 521 (BioLamina) at 5 ng/µl was immobilized on the internal surface of the biochips at 4°C overnight. RBCs from sickle cell disease patients were suspended at 5x10^7 cells/ml in Hanks balanced salt solution, without calcium chloride and magnesium sulfate (Sigma-Aldrich) supplemented with 0.4% BSA, and incubated with the solution comprising either Molecule 1, Molecule 2 or Molecule 3 at 0.1 mM or DMSO for 30 min at room temperature (20°C) and perfused through the biochip channels for 10 min at a shear stress of 0.5 dyn/cm^2 followed by a washout at the same shear stress with the buffer alone for 30 min. Five minutes washouts with the Hanks/0.4% BSA buffer were performed at 1, 2, 3, 4 and 5 dyn/cm^2. After each wash, adherent RBCs were counted in 7 representative areas along the centerline of each channel using the AxioObserver Z1 microscope and ZEN analysis software (Carl Zeiss, Le Pecq, France) and the mean number of adherent RBCs was determined for each condition and each washout step (Figure 1). Images of the same 7 areas were obtained throughout each experiment. Three adhesion assays were performed with 3 different blood samples. RBC adhesion to laminin was inhibited when the RBC suspension was incubated with Molecule 2 or 3, but not Molecule 1.
To address the dose effect of the molecules, adhesion assays were performed in the same conditions as in Example 1, using the following concentrations for Molecule 1, 2 or 3: • 50, 100 and 200 µM.

| Structure (SMILES) | decrease of RBC concentration compared to vehicle (DMSO) alone [1] | RBCs/ml (x10^6) [1] | RBC adhesion to laminin [2] | inhibition of RBC adhesion to laminin (dose effect) [2] |
| --- | --- | --- | --- | --- |
| CCC(=O)N1CCc2ccc(OCc3nc(C(=O)NCc4ccccc4)co3)cc2C1c1ccc(C)cc1 (stereo not drawn) [Molecule 1] | no decrease | 6.04 RBCs/ml (x10^6) | – | – |
| Cc1c(CC(=O)NC(C(=O)O)c2ccccc2)c(=O)oc2c(C)c3oc4c(c3cc12)CCCC4 (stereo not drawn) [Molecule 2] | – | 5.55 RBCs/ml (x10^6) | inhibited | increasing inhibition |
| O=S(=O)(O)CCCn1c(=NN=Cc2c(O)ccc3ccccc23)sc2ccccc21 [Molecule 3] | no decrease | 6.02 RBCs/ml (x10^6) | inhibited | increasing inhibition |

Reference: patent publication EP3360550A1, “MOLECULES AND PHARMACEUTICAL COMPOSITIONS, IN PARTICULAR FOR TREATING A GENETIC BLOOD DISORDER” (Université de La Réunion, priority 2017, dated 2018)
